According to patent US9580749B2, “Dyes and labeled molecules” (Biotium, Inc., priority 2005, dated 2017):
“Also recorded” adds a separate entry of the source.

What was measured:
nucleic acid = conditions: cited from earlier work
salmon sperm DNA = test: Absorbance and fluorescence emission spectra of dyes without or with DNA in PBS buffer; format: physicochemical; conditions: for red shift of absorbance upon binding to DNA, relative to free dye: 2 mg/ml salmon sperm DNA; for red shift of absorbance upon binding to DNA, relative to free dye / spectra of the free dyes: intramolecular H-dimer (hairpin) formation: PBS buffer; for spectra of the free dyes: intramolecular H-dimer (hairpin) formation: FIG. 5
Procedure: The spectra were normalized to 1 in the absorbance plot. […] The heterodimeric dye AORO-7 comprises a monomeric AO dye and a fluorescent non-nucleic acid rosamine RO dye. Two emission peaks, contributed by AO and RO moieties, respectively, were recorded.

[1] = test system: salmon sperm DNA or a mixture of single-stranded 20mer oligonucleotide; test: Fluorescence of AOAO-12 in response to different amounts of DNA (microtiter plate reader); format: binding; conditions: 0.1 μM dye in PBS
Procedure: It can be seen that fluorescence linearly responded to DNA up to 2.0 μg/ml (inset). At higher concentrations of DNA, the response became non-linear.

PCR reaction = test: Real-time PCR (qPCR) amplification of ATPB fragment in pTOPO plasmid with a fluorescent monitoring dye; format: biochemical; conditions: for inhibition of PCR (Ct delay) by the dye: increasing dye concentration
Procedure: The thermal regimen was set at 95° C. for 1 minute followed by 50 cycles of 15-second duration at 95° C., of 15-second duration at 55° C., and of 15-second duration at 72° C. Fluorescence was measured at the 55° C. stage.

[2] = test system: amplicons HMBS, RPL4, SDHA, TBP; test: Melting curves of amplicons after qPCR; format: biochemical; conditions: for melting peaks of the HMBS amplification reaction (primer dimer): HMBS amplicon, FIG. 15
Procedure: SYBR Green I was reported to be advantageous in that the melting temperature of an amplicon could be detected after qPCR amplification. The melting temperature provides valuable information about the amplicon, as it is a function of the size and GC content of the amplicon. No melting temperatures could be collected from TaqMan reactions. Melting curves from four amplicons, i.e., HMBS (SEQ ID NO: 4), RPL4 (SEQ ID NO: 5), SDHA (SEQ ID NO: 6), and TBP (SEQ ID NO: 7) were measured from reactions amplified in the presence of AOAO-12 (Panel A) or SYBR Green (Panel B) and are presented in FIG. 15.
It has been reported that qPCR reactions with SYBR Green I tend to form primer-dimers, and the tendency is closely related to the concentration of SYBR Green I. It has been postulated that SYBR Green I binds to DNA so tightly that it interferes with the performance of Taq DNA polymerase. As AOAO-12 has less affinity to DNA, the interference should be alleviated.

[3] = Thermo-stability of dye at 96° C. in PCR reaction buffers with PCR products; format: physicochemical; conditions: 96° C. for 40 minutes
Procedure: Specifically, AOAO-12 was kept in PCR reaction buffers with PCR products. The mixture was heated to 96° C. for 40 minutes. During the heating course, the mixture was brought down to 60° C. briefly to monitor the fluorescence.

[4] = stored in Tris buffer at 4° C.; cited from earlier work

SMILES: CN(C)c1ccc2cc3ccc(N(C)C)cc3nc2c1 [AO, acridine orange]
- absorption wavelength λabs (nucleic acid; DNA bound): 500 nm
- affinity for nucleic acid (nucleic acid): very low
- extinction coefficient (nucleic acid; in M-1·cm-1 (unit assumed)): > 50,000

SMILES: CN(C)c1ccc2cc3ccc(N(C)C)cc3[n+](CCCCCC(=O)NCCCCCNC(=O)CCCCC[n+]3c4cc(N(C)C)ccc4cc4ccc(N(C)C)cc43)c2c1 [AOAO-7]
- red shift of absorbance upon binding to DNA, relative to free dye (salmon sperm DNA): 5 nm
- new shorter wavelength peak in absorbance (salmon sperm DNA; free dye in PBS buffer, without DNA): 471 nm

SMILES: CN(C)c1ccc2cc3ccc(N(C)C)cc3[n+](CCCCCC(=O)NCCOCCNC(=O)CCCCC[n+]3c4cc(N(C)C)ccc4cc4ccc(N(C)C)cc43)c2c1 [AOAO-12]
- DNA concentration up to which fluorescence responded linearly [1]: up to 2.0 μg/ml
- fluorescence bound to double stranded versus single stranded DNA [1]: fluoresces more intensely when bound to double stranded DNA than when bound to single stranded DNA
- final fluorescence signal strength relative to SYBR Green I (PCR reaction; qPCR, dye at higher usable concentration): several folds higher; also recorded: several times higher
- inhibition of PCR (Ct delay) by the dye (PCR reaction; qPCR): without exhibiting inhibition; also recorded: little or no inhibition
- melting peaks of the HMBS amplification reaction (primer dimer) [2]: only a single, clean, and specific peak
- melting temperatures of amplicons relative to SYBR Green I ([2]; four amplicons, lower than SYBR Green I): about 2 degrees
- DNA binding affinity ([2]; relative to SYBR Green I): binds DNA with high affinity but less tightly than SYBR Green I
- height of melting peaks ([2]; relative to SYBR Green I): markedly higher
- stability (fluorescence monitored at 60° C.) [3]: stable at 96 °C for 40 minutes substantially without loss of fluorescence

SMILES: CC1=CC(C)(C)Nc2cc3c(cc21)C(c1ccc(C(=O)NCCCCCC(=O)NCCCCCNC(=O)CCCCC[n+]2c4cc(N(C)C)ccc4cc4ccc(N(C)C)cc42)cc1)=c1cc2c(cc1O3)=NC(C)(C)C=C2C [AORO-7]
- absorption peak of rosamine dye component (salmon sperm DNA): 600 nm
- emission peak of rosamine dye component (salmon sperm DNA): ~620 nm
- absorption peak of AO component (salmon sperm DNA; DNA): 503 nm
- emission peak of AO component (salmon sperm DNA; DNA): 523 nm

SMILES: CN(C)CCC[n+]1c2cc(N(C)C)ccc2cc2ccc(N(C)C)cc21.[I-] [DMAO]
- red shift of absorbance upon binding to DNA, relative to free dye (salmon sperm DNA): 10 nm

SMILES: CCCN(CCCN(C)C)c1cc(/C=C2/Sc3ccccc3N2C)c2ccccc2[n+]1-c1ccccc1 [SYBR Green I, reference compound]
- chemical stability on storage [4]: decomposes significantly over the course of a few days
- inhibition of PCR (Ct delay) by the dye (PCR reaction; qPCR): exhibited inhibition to PCR reactions; also recorded: significantly inhibits PCR at higher dye concentration
- melting peaks of the HMBS amplification reaction (primer dimer) [2]: has an extra primer dimer peak

SMILES: CN1/C(=C/c2cc[n+](CCC[N+](C)(C)CCC[N+](C)(C)CCC[n+]3ccc(/C=C4\Sc5ccccc5N4C)c4ccccc43)c3ccccc23)Sc2ccccc21.[I-].[I-].[I-].[I-] [TOTO-1, reference compound]
- spectra of the free dyes: intramolecular H-dimer (hairpin) formation (salmon sperm DNA; without DNA): has less spectral shift
- inhibition of PCR (Ct delay) by the dye (PCR reaction; qPCR): completely inhibited the PCR reaction

SMILES: C[n+]1c(C=C2C=CN(CCCCCC(=O)NCCNC(=O)CCCCCN3C=CC(=Cc4sc5ccccc5[n+]4C)c4ccccc43)c3ccccc32)sc2ccccc21 [TOTO-3]
- spectra of the free dyes: intramolecular H-dimer (hairpin) formation (salmon sperm DNA; without DNA): forms an intramolecular H-dimer, or a hairpin structure

SMILES: C[n+]1c(C=C2C=CN(CCCCCC(=O)CNCCOCCNC(=O)CCCCCN3C=CC(=Cc4sc5ccccc5[n+]4C)c4ccccc43)c3ccccc32)sc2ccccc21 [TOTO-12]
- Ct and fluorescence intensity in qPCR relative to TO (PCR reaction; FIG. 11): improved Ct and improved fluorescence intensity relative to TO

SMILES: CN(C)c1ccc2cc3ccc(=[N+](C)C)cc-3oc2c1.[Cl-] [pyronin Y]
- absorption maximum (nucleic acid): 548 nm
- emission maximum (nucleic acid): 565 nm
